According to patent publication US11877574B2, “Herbicidal oil dispersion and method” (Arysta LifeScience Inc., priority 2018, dated 2024):
Each block holds one compound with its values, some of them ahead of it.

Assays:
[1] = Active ingredient assay on storage, SCB239-12 (Table 3); assay type: physicochemical
[2] = Active ingredient assay and recovery on storage (Table 2); assay type: physicochemical

Compound: CCCCCCC(C)OC(=O)COc1nc(F)c(Cl)c(N)c1Cl (stereo not drawn) [Fluroxypyr, Fluroxypyr Meptyl]
Assay (% w/w) ([1]; 1 month storage, 0° C.): 11.25 % w/w
Recovery of active ingredient (% of initial assay) ([1]; 1 month storage, 0° C.): 99.37 % w/w
Assay (% w/w) ([1]; 1 month storage, 40° C.): 11.24 % w/w
Recovery of active ingredient (% of initial assay) ([1]; 1 month storage, 40° C.): 99.33 % w/w
Assay (% w/w) ([1]; 1 month storage, T/C): 11.25 % w/w
Recovery of active ingredient (% of initial assay) ([1]; 1 month storage, T/C): 99.36 % w/w
Assay (% w/w) ([1]; 2 month storage, 0° C.): 11.19 % w/w
Recovery of active ingredient (% of initial assay) ([1]; 2 month storage, 0° C.): 98.83 % w/w
Assay (% w/w) ([1]; 2 month storage, 40° C.): 11.13 % w/w
Recovery of active ingredient (% of initial assay) ([1]; 2 month storage, 40° C.): 98.36 % w/w
Assay (% w/w) ([1]; 2 month storage, T/C): 11.17 % w/w
Recovery of active ingredient (% of initial assay) ([1]; 2 month storage, T/C): 98.68 % w/w
Assay (% w/w) ([1]; 2 wks, 54° C.): 11.26 % w/w
Recovery of active ingredient (% of initial assay) ([1]; 2 wks, 54° C.): 99.48 % w/w
Assay (% w/w) ([1]; 3 month storage, 0° C.): 11.23 % w/w
Recovery of active ingredient (% of initial assay) ([1]; 3 month storage, 0° C.): 99.21 % w/w
Assay (% w/w) ([1]; 3 month storage, 25° C.): 11.20 % w/w
Recovery of active ingredient (% of initial assay) ([1]; 3 month storage, 25° C.): 98.92 % w/w
Assay (% w/w) ([1]; 3 month storage, 40° C.): 11.21 % w/w
Recovery of active ingredient (% of initial assay) ([1]; 3 month storage, 40° C.): 99.04 % w/w
Assay (% w/w) ([1]; 3 month storage, −10° C.): 11.13 % w/w
Recovery of active ingredient (% of initial assay) ([1]; 3 month storage, −10° C.): 98.30 % w/w
Assay (% w/w) ([1]; F/T sample): 11.28 % w/w
Recovery of active ingredient (% of initial assay) ([1]; F/T sample): 99.68 % w/w
Assay (% w/w) ([1]; Initial): 11.32 % w/w
Assay (% w/w) ([2]; 1 month storage, 0° C.): 11.47 % w/w
Assay (% w/w) ([2]; 1 month storage, 40° C.): 11.50 % w/w
Assay (% w/w) ([2]; 1 month storage, T/C): 11.52 % w/w
Assay (% w/w) ([2]; 1 month storage, −10° C.): 11.49 % w/w
Assay (% w/w) ([2]; 2 month storage, 0° C.): 11.56 % w/w
Assay (% w/w) ([2]; 2 month storage, 40° C.): 11.56 % w/w
Assay (% w/w) ([2]; 2 month storage, T/C): 11.55 % w/w
Assay (% w/w) ([2]; 2 month storage, −10° C.): 11.55 % w/w
Assay (% w/w) ([2]; 2 wks, 54° C.): 11.63 % w/w
Assay (% w/w) ([2]; 3 month storage, 0° C.): 11.63 % w/w
Assay (% w/w) ([2]; 3 month storage, 25° C.): 11.68 % w/w
Assay (% w/w) ([2]; 3 month storage, 40° C.): 11.69 % w/w
Assay (% w/w) ([2]; 3 month storage, T/C): 11.71 % w/w
Assay (% w/w) ([2]; 3 month storage, −10° C.): 11.71 % w/w
Assay (% w/w) ([2]; 6 month storage, 25° C.): 11.36 % w/w
Assay (% w/w) ([2]; 9 month storage, 25° C.): 11.56 % w/w
Assay (% w/w) ([2]; 12 month storage, 25° C.): 11.63 % w/w
Assay (% w/w) ([2]; F/T Sample): 11.61 % w/w
Assay (% w/w) ([2]; initial): 11.60 % w/w

Compound: CCCCC(CC)COC(=O)COc1ccc(Cl)cc1C (stereo not drawn) [MCPA, 2-ethylhexyl 2-(4-chloro-2-methylphenoxy) acetate]
Assay (% w/w) ([1]; 1 month storage, 0° C.): 33.65 % w/w
Recovery of active ingredient (% of initial assay) ([1]; 1 month storage, 0° C.): 99.88 % w/w
Assay (% w/w) ([1]; 1 month storage, 40° C.): 33.61 % w/w
Recovery of active ingredient (% of initial assay) ([1]; 1 month storage, 40° C.): 99.77 % w/w
Assay (% w/w) ([1]; 1 month storage, T/C): 33.64 % w/w
Recovery of active ingredient (% of initial assay) ([1]; 1 month storage, T/C): 99.85 % w/w
Assay (% w/w) ([1]; 2 month storage, 0° C.): 34.07 % w/w
Recovery of active ingredient (% of initial assay) ([1]; 2 month storage, 0° C.): 101.15 % w/w
Assay (% w/w) ([1]; 2 month storage, 40° C.): 33.84 % w/w
Recovery of active ingredient (% of initial assay) ([1]; 2 month storage, 40° C.): 100.47 % w/w
Assay (% w/w) ([1]; 2 month storage, T/C): 33.97 % w/w
Recovery of active ingredient (% of initial assay) ([1]; 2 month storage, T/C): 100.84 % w/w
Assay (% w/w) ([1]; 2 wks, 54° C.): 34.24 % w/w
Recovery of active ingredient (% of initial assay) ([1]; 2 wks, 54° C.): 101.65 % w/w
Assay (% w/w) ([1]; 3 month storage, 0° C.): 33.76 % w/w
Recovery of active ingredient (% of initial assay) ([1]; 3 month storage, 0° C.): 100.21 % w/w
Assay (% w/w) ([1]; 3 month storage, 25° C.): 33.64 % w/w
Recovery of active ingredient (% of initial assay) ([1]; 3 month storage, 25° C.): 99.86 % w/w
Assay (% w/w) ([1]; 3 month storage, 40° C.): 33.61 % w/w
Recovery of active ingredient (% of initial assay) ([1]; 3 month storage, 40° C.): 99.76 % w/w
Assay (% w/w) ([1]; 3 month storage, −10° C.): 33.41 % w/w
Recovery of active ingredient (% of initial assay) ([1]; 3 month storage, −10° C.): 99.20 % w/w
Assay (% w/w) ([1]; F/T sample): 34.30 % w/w
Recovery of active ingredient (% of initial assay) ([1]; F/T sample): 101.84 % w/w
Assay (% w/w) ([1]; Initial): 33.69 % w/w
Assay (% w/w) ([2]; 1 month storage, 0° C.): 34.61 % w/w
Assay (% w/w) ([2]; 1 month storage, 40° C.): 34.69 % w/w
Assay (% w/w) ([2]; 1 month storage, T/C): 34.68 % w/w
Assay (% w/w) ([2]; 1 month storage, −10° C.): 34.65 % w/w
Assay (% w/w) ([2]; 2 month storage, 0° C.): 34.82 % w/w
Assay (% w/w) ([2]; 2 month storage, 40° C.): 34.90 % w/w
Assay (% w/w) ([2]; 2 month storage, T/C): 34.94 % w/w
Assay (% w/w) ([2]; 2 month storage, −10° C.): 34.92 % w/w
Assay (% w/w) ([2]; 2 wks, 54° C.): 35.05 % w/w
Assay (% w/w) ([2]; 3 month storage, 0° C.): 35.25 % w/w
Assay (% w/w) ([2]; 3 month storage, 25° C.): 35.23 % w/w
Assay (% w/w) ([2]; 3 month storage, 40° C.): 35.28 % w/w
Assay (% w/w) ([2]; 3 month storage, T/C): 35.30 % w/w
Assay (% w/w) ([2]; 3 month storage, −10° C.): 35.36 % w/w
Assay (% w/w) ([2]; 6 month storage, 25° C.): 34.14 % w/w
Assay (% w/w) ([2]; 9 month storage, 25° C.): 34.73 % w/w
Assay (% w/w) ([2]; 12 month storage, 25° C.): 34.84 % w/w
Assay (% w/w) ([2]; F/T Sample): 35.06 % w/w
Assay (% w/w) ([2]; initial): 35.01 % w/w

Assay (% w/w) ([1]; 1 month storage, 0° C.): 0.35 % w/w
Recovery of active ingredient (% of initial assay) ([1]; 1 month storage, 0° C.): 100.15 % w/w
Assay (% w/w) ([1]; 1 month storage, 40° C.): 0.35 % w/w
Recovery of active ingredient (% of initial assay) ([1]; 1 month storage, 40° C.): 99.58 % w/w
Assay (% w/w) ([1]; 1 month storage, T/C): 0.35 % w/w
Recovery of active ingredient (% of initial assay) ([1]; 1 month storage, T/C): 99.83 % w/w
Assay (% w/w) ([1]; 2 month storage, 0° C.): 0.36 % w/w
Recovery of active ingredient (% of initial assay) ([1]; 2 month storage, 0° C.): 100.12 % w/w
Assay (% w/w) ([1]; 2 month storage, 40° C.): 0.35 % w/w
Recovery of active ingredient (% of initial assay) ([1]; 2 month storage, 40° C.): 100.02 % w/w
Assay (% w/w) ([1]; 2 month storage, T/C): 0.36 % w/w
Recovery of active ingredient (% of initial assay) ([1]; 2 month storage, T/C): 101.08 % w/w
Assay (% w/w) ([1]; 2 wks, 54° C.): 0.35 % w/w
Recovery of active ingredient (% of initial assay) ([1]; 2 wks, 54° C.): 100.70 % w/w
Assay (% w/w) ([1]; 3 month storage, 0° C.): 0.35 % w/w
Recovery of active ingredient (% of initial assay) ([1]; 3 month storage, 0° C.): 100.75 % w/w
Assay (% w/w) ([1]; 3 month storage, 25° C.): 0.35 % w/w
Recovery of active ingredient (% of initial assay) ([1]; 3 month storage, 25° C.): 100.17 % w/w
Assay (% w/w) ([1]; 3 month storage, 40° C.): 0.35 % w/w
Recovery of active ingredient (% of initial assay) ([1]; 3 month storage, 40° C.): 99.39 % w/w
Assay (% w/w) ([1]; 3 month storage, −10° C.): 0.35 % w/w
Recovery of active ingredient (% of initial assay) ([1]; 3 month storage, −10° C.): 99.59 % w/w
Assay (% w/w) ([1]; F/T sample): 0.36 % w/w
Recovery of active ingredient (% of initial assay) ([1]; F/T sample): 101.49 % w/w
Assay (% w/w) ([1]; Initial): 0.35 % w/w
Assay (% w/w) ([2]; 1 month storage, 0° C.): 0.41 % w/w
Assay (% w/w) ([2]; 1 month storage, 40° C.): 0.41 % w/w
Assay (% w/w) ([2]; 1 month storage, T/C): 0.41 % w/w
Assay (% w/w) ([2]; 1 month storage, −10° C.): 0.41 % w/w
Assay (% w/w) ([2]; 2 month storage, 0° C.): 0.41 % w/w
Assay (% w/w) ([2]; 2 month storage, 40° C.): 0.40 % w/w
Assay (% w/w) ([2]; 2 month storage, T/C): 0.40 % w/w
Assay (% w/w) ([2]; 2 month storage, −10° C.): 0.41 % w/w
Assay (% w/w) ([2]; 2 wks, 54° C.): 0.39 % w/w
Assay (% w/w) ([2]; 3 month storage, 0° C.): 0.41 % w/w
Assay (% w/w) ([2]; 3 month storage, 25° C.): 0.41 % w/w
Assay (% w/w) ([2]; 3 month storage, 40° C.): 0.40 % w/w
Assay (% w/w) ([2]; 3 month storage, T/C): 0.41 % w/w
Assay (% w/w) ([2]; 3 month storage, −10° C.): 0.42 % w/w
Assay (% w/w) ([2]; 6 month storage, 25° C.): 0.39 % w/w
Assay (% w/w) ([2]; 9 month storage, 25° C.): 0.39 % w/w
Assay (% w/w) ([2]; 12 month storage, 25° C.): 0.39 % w/w
Assay (% w/w) ([2]; F/T Sample): 0.41 % w/w
Assay (% w/w) ([2]; initial): 0.41 % w/w
Compound: CCCCCC(C)OC(=O)COc1ccc(Cl)c2cccnc12 (stereo not drawn) [cloquintocet, Cloquintocet Mexyl]
